Data on 30 molecules can be found in patent US12421212B2, “Substituted benzenecarboxamides as IL-17A modulators” (DiCE Alpha, Inc., priority 2019, dated 2025).

The assay deals with T1, IL-17A/A (Homo sapiens, UniProt Q16552).
T1 construct: purchased Genscript Z03228
T1 sequence (Q16552 24-155): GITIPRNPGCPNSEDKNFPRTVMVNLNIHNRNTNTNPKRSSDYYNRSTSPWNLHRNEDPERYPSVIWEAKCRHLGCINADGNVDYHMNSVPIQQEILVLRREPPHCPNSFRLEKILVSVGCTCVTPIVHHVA
The assay can be described thus: IL-17A/A HEK-Blue Cell Assay. It is filed as cell-based. To be noted: HEK-Blue IL-17A reporter cell line, SEAP readout at A630, 20 hours incubation with IL-17A/A, top concentration 10 uM, 1 uM or 0.3 uM; for IC50: read-out: IL-17A/A inhibition (pIC50) (converted).

For the molecule `CCC(=O)NC(C(=O)N1CCN(C(C)C)CC1)[C@@H](C)c1ccc(NC(=O)[C@@H](NC(=O)c2ccnn2CC)[C@H]2CC[C@H](C)CC2)c(F)c1` (stereo partly drawn) [Compound 664], the “IL-17A/A inhibition (pIC50)” value is “X3b (compounds were evaluated up to 0.3 uM and inhibited activity at 0.3 uM by less than 20%)”.

For the molecule `CCC(=O)N[C@H](Cc1ccc(NC(=O)[C@@H](NC(=O)c2ccnn2C(C)C)C2CCCCC2)c(F)c1)C(=O)N1CCN(C)CC1` [Compound 637], the IC50 was 100 to 10000 nM.

With `CCC(=O)N[C@H](Cc1ccc(NC(=O)[C@H](Cc2ccc(Cl)cc2)NC(=O)c2ccnn2CC)c(F)c1)C(=O)N1CCN(C)CC1` [Compound 722], the “IL-17A/A inhibition (pIC50)” value was “X2b (compounds were evaluated up to 1 uM and inhibited activity at 1 uM by less than 20%)”.

Take `CCc1nonc1C(=O)N[C@H](C(=O)Nc1ccc([C@H](C)[C@@H](NC(=O)[C@H](C)CC(=O)O)C(=O)N2CCN(C)CC2)cc1F)[C@H]1CC[C@H](C)CC1` [Compound 493]: the IC50 was 10 to 100 nM.

Consider `CCn1nccc1C(=O)N[C@H](C(=O)Nc1ccc([C@H](C)[C@@H](NC(=O)C(C)(F)F)C(=O)N2CCN(C)[C@@H](C)C2)cc1F)[C@H]1CC[C@H](C)CC1` [Compound 479], for which the IC50 is below 10 nM.

Regarding `CCC(=O)N[C@@H](C(=O)N1CCN(C)CC1(C)C)[C@@H](C)c1ccc(NC(=O)[C@@H](NC(=O)c2nonc2CC)[C@H]2CC[C@H](C)CC2)c(F)c1` [Compound 458], the IC50 was below 10 nM.

With `CCC(=O)N[C@@H](C(=O)N1CCN(C)CC1)[C@@H](C)c1ccc(NC(=O)C(NC(=O)c2ccnn2CC)C2CCc3cc(F)ccc32)c(F)c1` (single isomer, unassigned) [Compound 568], the IC50 was below 10 nM.

`CCC(=O)N[C@@H](C(=O)N1CCN(C)CC1)[C@@H](C)c1ccc(NC(=O)[C@@H](NC(=O)C(F)(F)C2CCNCC2)C2CCCCC2)c(F)c1` [Compound 733]: the “IL-17A/A inhibition (pIC50)” value was “X2b (compounds were evaluated up to 1 uM and inhibited activity at 1 uM by less than 20%)”.

With `CCC(=O)N[C@H](Cc1ccc(NC(=O)[C@@H](NC(=O)c2ccnn2CC)C2CCCCC2)c(C)c1)C(=O)N1CCN(C)CC1` [Compound 766], the IC50 is 100 to 10000 nM.

Consider `CCn1nccc1C(=O)N[C@H](C(=O)Nc1ccc([C@H](C)[C@@H](NC(=O)CC#N)C(=O)N2CCN(C)CC2)cc1F)C1CCCCC1` [Compound 665], for which the IC50 is 100 to 10000 nM.

For the molecule `CCC(=O)N[C@@H](C(=O)N1CCN(C)CC1)[C@@H](C)c1ccc(NC(=O)[C@@H](NC(=O)c2ccnn2C(C)C)C2CCCCCC2)c(F)c1` [Compound 241], the IC50 was below 10 nM.

`CCC(=O)N[C@H](Cc1ccc(NC(=O)[C@@H](NC(=O)c2ccnn2CC)C2CCCCC2)c(F)c1)C(=O)N1C[C@@H]2C[C@H]1CN2C` [Compound 696]: the “IL-17A/A inhibition (pIC50)” value was “X2a (compounds were evaluated up to 1 uM and did not inhibit activity by >80%, however they showed some activity at 1 uM (less than 80% and more than 20%))”.

As for `CCC(=O)N[C@@H](C(=O)N1CCN(C)CC1)[C@@H](C)c1ccc(NC(=O)[C@@H](NC(=O)c2cccn2CC)C2CCCCC2)c(F)c1` [Compound 254], the IC50 was 10 to 100 nM.

`CCc1nonc1C(=O)N[C@H](C(=O)Nc1ccc([C@H](C)[C@@H](NC(=O)COC)C(=O)N2CCN(C)CC2)cc1F)[C@H]1CC[C@H](C)CC1` [Compound 499]: the IC50 was below 10 nM.

For `CCC(=O)N[C@@H](C(=O)N1CCN(C)CC1)[C@@H](C)c1ccc(NC(=O)[C@@H](NC(=O)c2nnnn2CC)[C@H]2CC[C@H](C)CC2)c(F)c1` [Compound 527], the IC50 is 10 to 100 nM.

For the molecule `CCC(=O)N[C@@H](C(=O)N1CCN(C)CC1)[C@@H](C)c1ccc(NC(=O)C(NC(=O)c2ccnn2CC)C(C)C2CCC(F)(F)CC2)c(F)c1` (single isomer, unassigned) [Compound 589], the “IL-17A/A inhibition (pIC50)” value is “X3b (compounds were evaluated up to 0.3 uM and inhibited activity at 0.3 uM by less than 20%)”.

Consider `CCC(=O)N[C@@H](C(=O)N1CCN(C)CC1)[C@@H](C)c1ccc(NC(=O)[C@@H](NC(=O)c2ccnn2CC)[C@H](C)[C@H]2CC[C@H](C)CC2)c(F)c1` [Compound 587], for which the IC50 was 10 to 100 nM.

Turning to `CCC(=O)N[C@@H](C(=O)N1CCN(C)CC1)[C@@H](C)c1ccc(NC(=O)[C@@H](NC(=O)c2cnon2)[C@H]2CC[C@H](C)CC2)c(F)c1` [Compound 547], the “IL-17A/A inhibition (pIC50)” value was “X3b (compounds were evaluated up to 0.3 uM and inhibited activity at 0.3 uM by less than 20%)”.

In the case of `CCC(=O)N[C@@H](C(=O)N1CCN(C)CC1)[C@@H](C)c1ccc(NC(=O)[C@@H](NC(=O)C(F)(F)c2cncc(OC)c2)C2CCCCCC2)c(F)c1` [Compound 262], the IC50 was 10 to 100 nM.

In the case of `CCC(=O)N[C@@H](C(=O)N1CCN(C)CC1)[C@@H](C)c1ccc(NC(=O)[C@@H](NC(=O)C(F)(F)c2cncc(OC)c2)C2CCCCC2)c(F)c1` [Compound 246], the IC50 was 10 to 100 nM.

For `CCn1nccc1C(=O)N[C@H](C(=O)Nc1ccc([C@H](C)[C@@H](NC(=O)c2cnnn2C)C(=O)N2CCN(C)CC2)cc1F)C1CCCCC1` [Compound 306], the IC50 is 10 to 100 nM.

On to `Cc1nonc1C(=O)N[C@H](C(=O)Nc1ccc([C@H](C)[C@@H](NC(=O)c2cnns2)C(=O)N2CCN(C)CC2)cc1F)[C@H]1CC[C@H](C)CC1` [Compound 583], for which the IC50 is below 10 nM.

Consider `CCn1nccc1C(=O)N[C@H](C(=O)Nc1ccc([C@H](C)[C@@H](NC(=O)C(C)C2CC2)C(=O)N2CCN(C)[C@@H](C)C2)cc1F)[C@H]1CC[C@H](C)CC1` (stereo partly drawn) [Compound 433], for which the IC50 is below 10 nM.

Take `CCC(=O)N[C@@H](C(=O)N1CCN(C)CC1)[C@@H](C)c1ccc(NC(=O)C(NC(=O)c2ccnn2CC)C(CC)c2ccccc2)c(F)c1` (stereo partly drawn) [Compound 293]: the IC50 is 10 to 100 nM.

Regarding `CCC(=O)N[C@H](Cc1ccc(NC(=O)[C@@H](NC(=O)c2ccnn2CC)C2CCCCC2)c(F)c1)C(=O)Nc1cccnc1` [Compound 694], the IC50 is 100 to 10000 nM.

For `COc1ccc(C(F)(F)C(=O)N[C@H](C(=O)Nc2ccc(C[C@@H](NC(=O)c3cnns3)C(=O)N3CCN(C)CC3)cc2F)C2CCCCC2)cn1` [Compound 323], the IC50 was 10 to 100 nM.

In the case of `CCc1nonc1C(=O)N[C@H](C(=O)Nc1ccc([C@H](C)[C@@H](NC(=O)N(C)C2CC2)C(=O)N2CCN(C)[C@@H](C)C2)cc1F)[C@H]1CC[C@H](C)CC1` [Compound 509], the IC50 is 10 to 100 nM.

Regarding `CCC(=O)N[C@@H](C(=O)N1CCS(=O)(=O)CC1)[C@@H](C)c1ccc(NC(=O)[C@@H](NC(=O)c2ccnn2CC)C2CCCCC2)c(F)c1` [Compound 361], the IC50 is 10 to 100 nM.

In the case of `CCC(=O)N[C@@H](C(=O)N1CCN(CC)[C@H](C)C1)[C@@H](C)c1ccc(NC(=O)[C@@H](NC(=O)c2ccnn2CC)[C@H]2CC[C@H](C)CC2)c(F)c1` [Compound 426], the IC50 was below 10 nM.

Consider `CCC(=O)N[C@@H](C(=O)N1CCN(C)CC1)[C@@H](C)c1ccc(NC(=O)C(NC(=O)C(F)(F)c2cnc(OC)nc2)C2CCCCCC2)c(F)c1` (stereo partly drawn) [Compound 418], for which the IC50 is 10 to 100 nM.
